Test results published in US20100190724A1, “USE OF MELANOCYTE-STIMULATING HORMONE RELEASE-INHIBITING FACTOR AS A THERAPEUTIC AGENT IN THE TREATMENT OF PSEUDOMONAS AERUGINOSA INFECTION” (priority 2007, published 2010).
Where a SMILES comes first, the peptide text is derived from it.

Assays:
HIV-1IIB = test: HIV-1 antiviral assay (CPE reduction, MTS) in CEM-SS cells; assay type: cell-based; settings: peptide 10 micrograms per ml, 6 days post-infection
CEM-SS cells = test: Cytotoxicity (MTS cell viability) in HIV-1 experiments; settings: peptide 10 micrograms per ml, MTS
MRC-5 cells = test: Cytotoxicity testing in MRC-5 cells (CellTiter 96); assay type: cell-based, human; settings: 6 days incubation
Protocol: (§1) The following day, peptide was added and tested in duplicates.

A549 cells [1] = test: Apoptosis induction assay (Annexin-5); assay type: cell-based, human; settings: peptide 10 micrograms per ml, 24 hours
TNF-a = test: Th1/Th2 cytokine profiling assay: TNF-a; assay type: cell-based, Balb/c mice; settings: Ovalbumin-restimulated spleen cells; peptide 10 micrograms per ml; 72 hours
RAW 264.7 cells = test: Phagocytosis assay (Fluorescein-labeled Escherichia coli, flow cytometry); assay type: cell-based, mouse; settings: peptide 10 micrograms per ml, 30 min preincubation, 60 min ingestion
IL-2 = test: Th1/Th2 cytokine profiling assay: IL-2; assay type: cell-based, Balb/c mice; settings: Ovalbumin-restimulated spleen cells; peptide 10 micrograms per ml; 72 hours
[2] = system: hepatitis B virus (HBV) ayw strain; test: HBV replication assay in HepG2-2.2.15 cells (TaqMan PCR of secreted HBV DNA); assay type: cell-based; settings: peptide 10 micrograms per ml, six days, HBV DNA by TaqMan PCR
Protocol: HepG2-2.2.15 is a stable cell line containing the hepatitis B virus (HBV) ayw strain genome (ATCC Cat. No. CRL-11997). Antiviral compounds blocking any late step of viral replication such as transcription, translation, pregenome encapsidation, reverse transcription, particle assembly and release can be identified and characterized using this cell line.
HepG2-2.2.15 cells were plated in 96-well microtiter plates. After 16-24 hours the confluent monolayer of HepG2-2.2.15 cells was washed and the medium was replaced with complete medium containing test peptide—10 micrograms per ml—in duplicate. […] Three days later the culture medium was replaced with fresh medium containing the peptide. Six days following the initial administration of the peptide, the cell culture supernatants was collected, treated with pronase and DNAse and then used in a real-time quantitative TaqMan PCR assay. The PCR-amplified HBV DNA was detected in real-time by monitoring increases in fluorescence signals that result from the exonucleolytic degradation of a quenched fluorescence probe molecule that hybridizes to the amplified HBV DNA. For each PCR amplification, a standard curve was simultaneously generated using dilutions of purified HBV DNA. Antiviral activity was calculated from the reduction in HBV DNA levels (% virus control). […]

HUVEC = test: Endothelial tube formation assay; assay type: cell-based, human; settings: peptide 10 micrograms per ml, 20 hours
Excerpt: Positive control was vehicle only.

A549 cells [3] = test: Apoptosis prevention assay (C2 ceramide, Annexin-5); assay type: cell-based, human; settings: 30 min pretreatment with peptide 10 micrograms per ml, then C2 ceramide
IL-4 = test: Th1/Th2 cytokine profiling assay: IL-4; assay type: cell-based, Balb/c mice; settings: Ovalbumin-restimulated spleen cells; peptide 10 micrograms per ml; 72 hours
IFNγ = test: Th1/Th2 cytokine profiling assay: IFNγ; assay type: cell-based, Balb/c mice; settings: Ovalbumin-restimulated spleen cells; peptide 10 micrograms per ml; 72 hours
MRSA = assay type: cell-based, Staphylococcus Aureus; settings: 5 micrograms per ml
[4] = Cytotoxicity (dye uptake cell viability) in HBV assay; assay type: cell-based; settings: human, HepG2-2.2.15 cells, peptide 10 micrograms per ml
Protocol: HepG2-2.2.15 cells were plated in 96-well microtiter plates. After 16-24 hours the confluent monolayer of HepG2-2.2.15 cells was washed and the medium was replaced with complete medium containing test peptide—10 micrograms per ml—in duplicate. Lamivudine (3TC) was used as the positive control, while media alone was added to the cells as a negative control (virus control). Three days later the culture medium was replaced with fresh medium containing the peptide. Six days following the initial administration of the peptide, the cell culture supernatants was collected, treated with pronase and DNAse and then used in a real-time quantitative TaqMan PCR assay. The PCR-amplified HBV DNA was detected in real-time by monitoring increases in fluorescence signals that result from the exonucleolytic degradation of a quenched fluorescence probe molecule that hybridizes to the amplified HBV DNA. For each PCR amplification, a standard curve was simultaneously generated using dilutions of purified HBV DNA. Antiviral activity was calculated from the reduction in HBV DNA levels (% virus control). A novel dye uptake assay was then employed to measure cell viability, which is used to calculate toxicity (% cell control).

[5] = Cytotoxicity testing in MRC-5 cells (CellTiter 96); assay type: cell-based, human; settings: human, 6 days incubation, read-out: % Cell viability
Protocol: as §1

A549 cells [6] = test: Propidium iodide cell cycle assay; assay type: cell-based, human; settings: peptide 10 micrograms per ml, 24 hours, FACS
TNF alpha = TNF alpha production assay in LPS-stimulated macrophages (ELISA); assay type: cell-based, human; settings: PBMC-derived macrophages, peptide 10 micrograms per ml, lipopolysaccharide 200 ng/ml, overnight
Excerpt: Not stimulated macrophages served as negative background control.

IL-5 = test: Th1/Th2 cytokine profiling assay: IL-5; assay type: cell-based, Balb/c mice; settings: Ovalbumin-restimulated spleen cells; peptide 10 micrograms per ml; 72 hours
[7] = system: Human Peripheral Blood Mononuclear Cells (PBMC); test: B cell proliferation assay (SAC plus Interleukin-2, 3H-thymidine); assay type: cell-based; settings: peptide 10 micrograms per ml, 3H-thymidine incorporation
Pseudomonas aeruginosa = assay type: cell-based; settings: 5 micrograms per ml
[8] = system: Human Peripheral Blood Mononuclear Cells (PBMC); test: T cell proliferation assay (PHA, 3H-thymidine); assay type: cell-based; settings: peptide 10 micrograms per ml, 3H-thymidine incorporation
[9] = Cytotoxicity (MTS cell viability) in HIV-1 experiments; settings: human, CEM-SS cells
HCMV strain AD169 = test: HCMV plaque reduction assay in MRC-5 cells; assay type: cell-based, human cytomegalovirus; settings: peptide 10 micrograms per ml, 7-10 days
Excerpt: Ganciclovir was used as positive control.

[10] = system: Primary Human endothelial cells (HUVEC); test: Endothelial cell migration assay; assay type: cell-based; settings: peptide 10 micrograms per ml, 22 hours
Streptococcus pneumoniae = assay type: cell-based; settings: 5 micrograms per ml

Compound: Cc1cn([C@H]2C[C@H](N=[N+]=[N-])[C@@H](CO)O2)c(=O)[nH]c1=O [AZT, reference compound]
- % CPE reduction in HIV-1 infected CEM-SS cells (HIV-1IIB): 99%
- % Cell viability (CEM-SS cells): 97%

Compound: Nc1nc(O)c2ncn(COC(CO)CO)c2n1 [Ganciclovir, reference compound]
- % Cell viability (MRC-5 cells): 100%

Compound: CC(C)C[C@H](NC(=O)[C@@H]1CCCN1)C(=O)NCC(N)=O [MSHRIF, Pro-Leu-Gly-NH2] (H-Pro-Leu-Gly-NH2)
- % of induction (A549 cells [1]): 0.9%
- TNF-a spleen cells; TH1 response (% of control) (TNF-a): 81.4 % of control
- % of control phagocytosis (RAW 264.7 cells): 145.7%
- IL-2 spleen cells (% of control) (IL-2): 0.0 % of control
- % inhibition of HBV replication in HEP G2 cells [2]: 10.9%
- % inhibition of tube formation (HUVEC): 9.0%
- % prevention of ceramide induced apoptosis (A549 cells [3]): 0.0%
- IL-4 spleen cells; TH2 response (% of control) (IL-4): 0.0 % of control
- % CPE reduction in HIV-1 infected CEM-SS cells (HIV-1IIB): 0.0%
- IFNγ spleen cells; TH1 response (% of control) (IFNγ): 88.0 % of control
- % inhibition (MRSA): 0.0%
- viability at 144 h, 10 micrograms per ml [4]: 100%
- viability at 144 h [5]: 100%
- Cell cycle analysis G0/G1 (A549 cells [6]): 56.9
- Cell cycle analysis G2/M (A549 cells [6]): 11.7
- Cell cycle analysis S (A549 cells [6]): 31.4
- % of LPS induction (TNF alpha): 88.2%
- IL-5 spleen cells; TH2 response (% of control) (IL-5): 56.7 % of control
- % of SAC/IL2 induced control [7]: 79.2%
- % inhibition (Pseudomonas aeruginosa): 100.0%
- % of PHA induced control [8]: 80.8%
- viability at 10 micrograms per ml [9]: 98.4%
- % plaque reduction (HCMV strain AD169): 0.0%
- % inhibition of migration [10]: −8%
- % inhibition (Streptococcus pneumoniae): 0.0%
